Where “and” joins values, the source holds several entries; their conditions need not be identical. Equal values may be shown once. Entries after “also recorded” stand apart in the source; their conditions may differ.
Experiments:
[1] = human plasma following oral administration; cited from earlier work
[2] = Integrated adverse events from placebo controlled studies of ganaxolone; type: in vivo, human; details: Ganaxolone n = 750, placebo controlled studies
Excerpt: As noted in Table 6, across multiple placebo controlled studies of ganaxolone across multiple indications including epilepsy, few side effects are reported that occur at a rate higher than those reported in placebo-treated subjects. These side effects are generally mild and have always been reversible. […] Four of the 7 children enrolled into this study remain on ganaxolone. Adverse events in this study are similar to those reported for all placebo controlled studies completed to date as summarized in Table 6 below.

[3] = system: children with CDKL5 Deficiency Disorder; test: Phase 2 open-label trial, CDKL5 (CDD) cohort, seizure efficacy; type: in vivo, human
Excerpt: Example 3 concerns a Phase 2 Multicenter, Open-Label Proof-of-Concept Trial of ganaxolone (GNX) in cohorts of children having genetic epilepsies (PCDH19, CDKL5 LGS, and CSWS) (ClinicalTrials.gov Identifier: NCT02358538). There were 11 female children with PCDH19 epilepsy between 5-16 years old with a confirmed genetic mutation. There were 6 female and 1 male children with confirmed genetic mutations in the CDKL5 cohort. There were 10 children in the Lennox Gastaut Syndrome cohort. Two children with CSWS were enrolled into the study. The study was conducted with 12 weeks baseline, and up to 26 weeks of treatment followed by a 52 week open label treatment. The primary efficacy was the percentage change in seizure frequency per 28 days relative to baseline calculated using daily seizure diary. [Time Frame: 26 weeks]. Secondary Outcome Measures were: Clinician Global Impression of Change score as assessed by questionnaire. [Time Frame: 26 Weeks]; Patient Global Impression of Change score as assessed by questionnaire. [Time Frame: 26 Weeks]; Evaluation of safety and tolerability of open-label ganaxolone as adjunctive therapy for uncontrolled seizures in children with rare genetic epilepsies, based on adverse event log and other clinical safety assessments. [Time Frame: 26 weeks]; Responder rates [Time Frame: 26 weeks]; and Seizure free days [Time Frame: 26 weeks].
Following screening and baseline evaluations, consenting patients enrolled into a 26-week study during which investigators were allowed to flexibly dose ganaxolone up to a dose of 1,800 mg/day for patients whose body weight was >30 kg, or up to 63 mg/kg/day for patients whose body-weight was <30 kg. The primary efficacy measure is % change from baseline in the 28-day seizure frequency count. Safety and tolerability were within the secondary objectives of the study.
In this study, oral ganaxolone suspension or capsules were administered up to a total of 63 mg/kg/day (maximum 1800 mg/day) over 2-4 weeks. About six-eight titration steps are used, depending on the size of the patient. Children larger than 30 kg may take the ganaxolone capsules. The ganaxolone oral suspension was administered through an oral dosing syringe three times daily. The ganaxolone capsules were administered twice daily. The patients experience better absorption of the ganaxolone with meals (milk).
After establishing baseline seizure frequency, qualifying subjects entered the study and were treated with open-label ganaxolone oral suspension or ganaxolone capsules at doses up to a maximum of 1800 mg/day for up to 6 months. Maximum study participation was 94 weeks: a screening period up to 12 weeks to establish baseline seizure frequency, up to 26 weeks of treatment, a 52 week extension for subjects who benefited from ganaxolone treatment, and up to 4 weeks of down titration period. […] Refractive cases of LGS or CSWS that had prior response to steroid or ACTH could also have been enrolled.
Ganaxolone oral suspension was administered through an oral dosing syringe by parent or legal guardian 3 times daily (TID), following the morning, noon, and evening meal or snack. Each dose was separated by a minimum of 4 hours and a maximum of 8 hours. A missed dose of ganaxolone could have been taken up to 4 hours before the next scheduled dose; otherwise, the missed dose was not to be given.
Ganaxolone capsules were administered with a glass of water or other liquid 2 times daily (BID), following the morning and evening meal or snack. Ganaxolone was provided as either an oral suspension or capsules based on the subject's weight at study entry. Ganaxolone oral suspension was administered through an oral dosing syringe TID by a parent or guardian, following the morning, midday, and evening meal or snack. Each dose was separated by a minimum of 4 hours and a maximum of 8 hours. Ganaxolone capsules were administered BID, following the morning and evening meal or snack. […]

## CC(=O)[C@H]1CC[C@H]2[C@@H]3CC[C@H]4C[C@](C)(O)CC[C@]4(C)[C@H]3CC[C@]12C [Ganaxolone, 3α-hydroxy-3β-methyl-5α-pregnan-20-one]
[1]
  Half-life: approximately 20 hours
[2]
  Adverse event: Dizziness: 95 (13%) n (%)
  Adverse event: Fatigue: 51 (7%) n (%)
  Adverse event: Headache: 37 (5%) n (%)
  Adverse event: Somnolence: 134 (18%) n (%)
[3]; 2 out of 4 completed CDKL5 patients
  Improvement in seizure free days, individual patients: 78% and 368%
[3]; 4 completed CDKL5 patients
  Patients with >50% reduction in seizure counts: 3 out of 4
[3]; 7 CDKL5 patients
  Patients with increase/improvement in seizure-free days: Four of the 7; also recorded: Five of the 7
[3]; CDD cohort, PP Population
  Mean percent change in 28-day total seizure frequency from baseline to Week 26: 20.55%
  Median percent change in 28-day total seizure frequency from baseline to Week 26: 37.70%
[3]; CDD cohort, end of Week 26
  Clinical global impression of improvement: much improved: 3 subjects
  Clinical global impression of improvement: very much improved: 0 subjects
[3]; CDKL5, 3 months (3/7 subjects)
  Overall responder rate: 43%
[3]; CDKL5, 6 months (2/6 subjects)
  Overall responder rate: 33%
[3]; CDKL5 N=7, MITT
  28-day seizure frequency, sum of individual seizures and clusters, post-baseline 26-week open-label period, Mean (SD): 137.70
  28-day seizure frequency, sum of individual seizures and clusters, post-baseline 26-week open-label period, Median: 67.29
  28-day seizure frequency, sum of individual seizures and clusters, post-baseline through Month 3 (Day 91), Mean (SD): 129.78
  28-day seizure frequency, sum of individual seizures and clusters, post-baseline through Month 3 (Day 91), Median: 55.69
  Percent change from baseline (at Day 91), 28-day seizure frequency, sum of individual seizures and clusters, Mean (SD): 31.23% and −31.23%
  Percent change from baseline (at Day 91), 28-day seizure frequency, sum of individual seizures and clusters, Median: 47.34% and −47.34%
  Percent change from baseline (at Week 26), 28-day seizure frequency, sum of individual seizures and clusters, Mean (SD): 20.55% and −20.55%
  Percent change from baseline (at Week 26), 28-day seizure frequency, sum of individual seizures and clusters, Median: 37.70% and −37.70%
[3]; CDKL5 cohort, N=3
  % change seizure rate-12 month, Mean: −56.12%
  % change seizure rate-12 month, Median: −47.79%
  Post-baseline 28-day seizure rate-12 month, Mean: 114.39
  Post-baseline 28-day seizure rate-12 month, Median: 76.54
[3]; CDKL5 cohort, N=7
  % change seizure rate-3 month, Mean: −32.67%
  % change seizure rate-3 month, Median: −49.99%
  % change seizure rate-6 month, Mean: −16.81%
  % change seizure rate-6 month, Median: −47.80%
  Post-baseline 28-day seizure rate-3-month, Mean: 821.16
  Post-baseline 28-day seizure rate-3-month, Median: 57.87
  Post-baseline 28-day seizure rate-6 month, Mean: 1373.85
  Post-baseline 28-day seizure rate-6 month, Median: 67.29
[3]; CDKL5 n=7, MITT
  28-day individual seizure frequency, post-baseline 26-Week open-label period, Mean (SD): 103.70
  28-day individual seizure frequency, post-baseline 26-Week open-label period, Median: 67.29
  28-day individual seizure frequency, post-baseline through Month 3 (Day 91), Mean (SD): 103.69
  28-day individual seizure frequency, post-baseline through Month 3 (Day 91), Median: 53.82
  Percent change from baseline (at Day 91), 28-day individual seizure frequency, Mean (SD): −30.33%
  Percent change from baseline (at Day 91), 28-day individual seizure frequency, Median: −46.64%
  Percent change from baseline (at Week 26), 28-day individual seizure frequency, Mean (SD): −21.06%
  Percent change from baseline (at Week 26), 28-day individual seizure frequency, Median: −38.10%
[3]; children with CDKL5 disorder
  Median percent reduction in seizures: 43%
[3]; completed CDKL5 patients with >50% reduction
  Reduction in seizure counts, individual patients: 52% and 59% and 88%
[3]; first 6 CDKL5 patients, preliminary
  Patients with improvement in seizure control that persists for up to 6 months: 3 of 6
